The source of these data is patent US10065990B2, “Cyclic peptide compound, and preparation method, pharmaceutical composition and use thereof” (HANGZHOU GUANYU BIO-MEDICAL CO., LTD, priority 2013, dated 2018).

For assay [1], the system named is BGC-823 (human gastric cancer cells). The assay can be described thus: MTT cancer cell growth inhibition. Type of assay: cell-based. The note with it: Homo sapiens, BGC-823, 72 h, MTT, 72 hours incubation, read-out: GI50 BG. Put shortly:
(§1)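 Three-day compound exposure (final 10^−5–10^−10 M, three replicate wells) of cells seeded at 1500 per well precedes a 4 h MTT incubation at 37° C. Viability is taken from 570 nm absorbance after DMSO solubilisation, and GI50 calculated from it.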

The subject of assay [2] is HCC827 (human non-small cell lung cancer cells). Kind of assay: MTT cancer cell growth inhibition. In kind it is cell-based. The note with it: Homo sapiens, HCC827, 72 h, MTT, 72 hours incubation, HCC827 cells; read-out: GI50 HCC827. A digest of the protocol: as §1
For assay [3], the system named is KBM-5 (human chronic myelogenous leukemia). The assay can be described thus: MTT cancer cell growth inhibition. The note with it: Homo sapiens, KBM5, 72 h, MTT, 72 hours incubation, KBM-5 cells; read-out: GI50 KBM-5. In kind it is cell-based. Put shortly:
as §1

Assay [4] has as its system U937 (human leukemia cells). The assay can be described thus: MTT cancer cell growth inhibition. Type of assay: cell-based. The note with it: Homo sapiens, U-937, 72 h, MTT, 72 hours incubation, read-out: GI50 U93. A digest of the protocol:
as §1

For assay [5], the system named is Huh-7 (human hepatoma cells). The assay can be described thus: MTT cancer cell growth inhibition. Type of assay: cell-based. The note with it: Homo sapiens, Huh-7, 72 h, MTT, 72 hours incubation, Huh-7 cells; read-out: GI50 Huh-7. Put shortly: as §1
The subject of assay [6] is DU145 (human prostate cancer cells). Kind of assay: MTT cancer cell growth inhibition. In kind it is cell-based. The note with it: Homo sapiens, DU-145, 72 h, MTT, 72 hours incubation, read-out: GI50 Du1. Put shortly: as §1
Assay [7] relates to A549 (human lung cancer cells). The assay can be described thus: MTT cancer cell growth inhibition. In kind it is cell-based. The note with it: Homo sapiens, A549, 72 h, MTT, 72 hours incubation, read-out: GI50 A54. Put shortly:
as §1

The test system of assay [8] is H1975 (non-small cell lung adenocarcinoma). The assay can be described thus: MTT cancer cell growth inhibition. Type of assay: cell-based. The note with it: Homo sapiens, NCI-H1975, 72 h, MTT, 72 hours incubation, H1975 cells; read-out: GI50 H1975. A digest of the protocol:
as §1

Assay [9] has as its system Bel-7402 (human hepatoma cells). Kind of assay: MTT cancer cell growth inhibition. Type of assay: cell-based. The note with it: Homo sapiens, Bel-7402, 72 h, MTT, 72 hours incubation, Bel-7402 cells; read-out: GI50 Bel-7402. A digest of the protocol:
as §1

In assay [10] the test system is SGC-7901 (human gastric cancer cells). The assay can be described thus: MTT cancer cell growth inhibition. The note with it: Homo sapiens, SGC-7901, 72 h, MTT, 72 hours incubation, SGC-7901 cells; read-out: GI50 SGC-7901. Type of assay: cell-based. Put shortly:
as §1

For assay [11], the system named is KBM5-T315I (human chronic myelogenous leukemia). Kind of assay: MTT cancer cell growth inhibition. In kind it is cell-based. The note with it: Homo sapiens, 72 h, MTT, 72 hours incubation, KBM5-T315I cells; read-out: GI50 KBM5-T315I. Put shortly: as §1
For assay [12], the system named is PANC-1 (Pac-1, human pancreatic cancer cells). The assay can be described thus: MTT cancer cell growth inhibition. Type of assay: cell-based. The note with it: Homo sapiens, PANC-1, 72 h, MTT, 72 hours incubation, read-out: GI50 PAN. Put shortly:
as §1

Assay [13] deals with K562 (human leukemia cells). The assay can be described thus: MTT cancer cell growth inhibition. Type of assay: cell-based. The note with it: Homo sapiens, K562, 72 h, MTT, 72 hours incubation, K562 cells; read-out: GI50 K562. Put shortly: as §1
For assay [14], the system named is MCF-7 (human breast cancer cells). The assay can be described thus: MTT cancer cell growth inhibition. Type of assay: cell-based. The note with it: Homo sapiens, MCF7, 72 h, 72 hours incubation, read-out: GI50 MCF. Put shortly: as §1
The subject of assay [15] is MDA-MB-231 (breast cancer cells). Kind of assay: MTT cancer cell growth inhibition. Type of assay: cell-based. The note with it: Homo sapiens, MDA-MB-231, 72 h, read-out: GI50 MDA-MB-231, MTT, 72 hours incubation, MDA-MB-231 cells. Put shortly: as §1
The test system of assay [16] is HT1080 (human fibrosarcoma cells). The assay can be described thus: MTT cancer cell growth inhibition. In kind it is cell-based. The note with it: Homo sapiens, HT-1080, 72 h, MTT, 72 hours incubation, read-out: GI50 HT1. A digest of the protocol: as §1
The test system of assay [17] is Hela (human cervical cancer cells). Kind of assay: MTT cancer cell growth inhibition. Type of assay: cell-based. The note with it: Homo sapiens, HeLa, 72 h, MTT, 72 hours incubation, read-out: GI50 Hela. A digest of the protocol: as §1
Assay [18] has as its system MOLT-4 (human acute lymphoblastic leukemia cells). Kind of assay: MTT cancer cell growth inhibition. In kind it is cell-based. The note with it: Homo sapiens, MOLT-4, 72 h, MTT, 72 hours incubation, read-out: GI50 Mol. A digest of the protocol: as §1
The subject of assay [19] is N-87 (human gastric cancer cells). The assay can be described thus: MTT cancer cell growth inhibition. Type of assay: cell-based. The note with it: Homo sapiens, 72 h, MTT, 72 hours incubation, N-87 cells; read-out: GI50 N-87. A digest of the protocol: as §1
Assay [20] deals with lncap (prostate cancer cells). The assay can be described thus: MTT cancer cell growth inhibition. The note with it: Homo sapiens, LNCaP, 72 h, MTT, 72 hours incubation, read-out: GI50 lnca. In kind it is cell-based. A digest of the protocol:
as §1

The target of the next assay is T1, HDAC7 (Homo sapiens, UniProt Q8WUI4).
T1 sequence (Q8WUI4 1-952): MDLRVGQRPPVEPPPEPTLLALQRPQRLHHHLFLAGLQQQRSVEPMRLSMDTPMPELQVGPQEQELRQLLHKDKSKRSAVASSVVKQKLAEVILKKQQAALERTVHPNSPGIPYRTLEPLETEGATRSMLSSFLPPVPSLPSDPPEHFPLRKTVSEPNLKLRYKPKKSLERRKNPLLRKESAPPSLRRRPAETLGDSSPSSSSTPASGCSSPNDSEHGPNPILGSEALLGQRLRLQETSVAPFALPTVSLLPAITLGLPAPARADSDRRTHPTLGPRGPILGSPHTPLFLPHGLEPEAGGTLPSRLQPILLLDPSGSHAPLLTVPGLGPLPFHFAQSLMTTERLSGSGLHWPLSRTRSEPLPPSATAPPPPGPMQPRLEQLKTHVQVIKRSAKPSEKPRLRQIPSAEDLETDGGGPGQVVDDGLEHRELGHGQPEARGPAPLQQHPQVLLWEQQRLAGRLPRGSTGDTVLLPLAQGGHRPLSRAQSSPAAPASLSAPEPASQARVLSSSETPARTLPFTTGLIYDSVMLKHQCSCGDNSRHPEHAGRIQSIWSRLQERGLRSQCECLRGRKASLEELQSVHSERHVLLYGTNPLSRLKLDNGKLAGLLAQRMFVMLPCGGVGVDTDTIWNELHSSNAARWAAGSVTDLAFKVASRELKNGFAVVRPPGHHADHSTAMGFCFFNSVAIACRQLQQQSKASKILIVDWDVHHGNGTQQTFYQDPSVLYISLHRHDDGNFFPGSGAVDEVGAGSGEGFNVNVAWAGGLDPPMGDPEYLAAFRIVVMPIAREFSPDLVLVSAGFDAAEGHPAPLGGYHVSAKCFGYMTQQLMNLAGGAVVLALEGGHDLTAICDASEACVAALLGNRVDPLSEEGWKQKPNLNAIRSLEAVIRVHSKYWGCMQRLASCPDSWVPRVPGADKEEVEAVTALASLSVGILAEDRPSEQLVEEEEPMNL
Kind of assay: HDAC biochemical activity measurement (fluorescent substrate deacetylation).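 Note: fluorogenic deacetylation assay using acetyl-lysine substrate at 20 µM, enzyme and compound incubated 30 min at 37 °C, then developer added, fluorescence read at 360/460 nm.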 The note with it: HDAC7; 37° C. 30 minutes.

Where two headings read alike, the source gives them in different places.

The GI50 is the concentration giving 50% growth inhibition. With `C/C=C1\NC(=O)c2cc(SC)cc(n2)CNC(=O)C[C@@H](/C=C/CCSC(C)=O)OC(=O)[C@H](Cc2ccccc2)NC1=O` [Compound 187], the GI50 is 60 nM in [1] (BGC-823 cells); 75 nM in assay [2]; 21 nM in [3]; 60 nM in assay [4] (U937 cells); 85 nM in assay [5]; 50 nM in assay [6] (DU145 cells). For the same compound, the GI50 in assay [7] (A549 cells) came to 60 nM; in assay [8], 23 nM; in assay [9], 43 nM; in assay [10], 38 nM; in [11] it was 41 nM; in assay [12] (PANC-1 cells), 60 nM. Further, the GI50 stood at 45 nM in assay [13]; 20 nM in assay [14] (MCF-7 cells); 11 nM in assay [15]; 20 nM in [16] (HT1080 cells); 40 nM in assay [17] (Hela cells); 30 nM in assay [18] (MOLT-4 cells). Besides, the figures for the 50% growth inhibitory concentration (GI50) in [19] and in assay [20] (lncap cells) were 42 nM and 60 nM, respectively. In addition, the “IC50 HDAC7” value at HDAC7 is “no activity”.
Regarding `C=C1NC(=O)c2nc(ccc2F)CNC(=O)C[C@@H](/C=C/CCS)OC(=O)[C@H](C)NC1=O` [Compound 140], the concentration for 50% growth inhibition (GI50) is 100 nM in assay [1]; 21 nM in assay [2]; 31 nM in assay [3]; 70 nM in assay [4]; 42 nM in [5]; 60 nM in assay [6]. Moreover, the GI50 amounted to 30 nM in [7]; 63 nM in assay [8]; 79 nM in assay [9]; 44 nM in [10]; 33 nM in assay [11]; 30 nM in [12]. In addition, the GI50 was 39 nM in assay [13]; 80 nM in [14]; 31 nM in [15]; 50 nM in [16]; 130 nM in assay [17]; 50 nM in assay [18]. Also, the results for the GI50 in assay [19] and in assay [20] were 55 nM and 20 nM, respectively. For the same compound, at HDAC7, the “IC50 HDAC7” value is listed as “no activity”.
For `C/C=C1\NC(=O)c2cc(SC)cc(n2)CNC(=O)C[C@@H](/C=C/CCSC(=O)CCCC)OC(=O)[C@H](C(C)C)NC1=O` [Compound 157], the GI50 in [1] (BGC-823 cells) was determined as 30 nM; in assay [2] it was 37 nM; in assay [3] it was 36 nM; in assay [4] (U937 cells) it was 20 nM; in [5] it was 29 nM; in [6] (DU145 cells), 70 nM. The GI50 in assay [7] (A549 cells) worked out at 20 nM; in [8] it was 35 nM; in assay [9], 83 nM; in assay [10], 72 nM; in [11], 23 nM; in [12] (PANC-1 cells) it was 20 nM. The GI50 was determined as 23 nM in [13]; 20 nM in [14] (MCF-7 cells); 26 nM in assay [15]; 90 nM in assay [16] (HT1080 cells); 70 nM in assay [17] (Hela cells); 20 nM in assay [18] (MOLT-4 cells). For the same compound, the results for the GI50 in assay [19] and in assay [20] (lncap cells) were 36 nM and 50 nM, respectively. Besides, the “IC50 HDAC7” value against HDAC7 is reported as “no activity”.
On to `C/C=C1\NC(=O)c2ccc(SC)c(n2)CNC(=O)C[C@@H](/C=C/CCSC=O)OC(=O)[C@H](C(C)C)NC1=O` [Compound 170], for which the GI50 in assay [1] (BGC-823 cells) came to 20 nM; in assay [2], 96 nM; in [3] it was 49 nM; in assay [4] (U937 cells), 90 nM; in [5] it was 88 nM; in [6] (DU145 cells) it was 20 nM. The GI50 in assay [7] (A549 cells) came out at 60 nM; in assay [8], 26 nM; in [9], 43 nM; in [10], 37 nM; in assay [11] it was 57 nM; in assay [12] (PANC-1 cells) it was 50 nM. Moreover, the GI50 amounted to 37 nM in assay [13]; 60 nM in assay [14] (MCF-7 cells); 38 nM in [15]; 50 nM in assay [16] (HT1080 cells); 30 nM in [17] (Hela cells); 30 nM in [18] (MOLT-4 cells). For the same compound, the GI50 in assay [19] worked out at 62 nM; in assay [20] (lncap cells), 70 nM. Besides, the “IC50 HDAC7” value on HDAC7 was “no activity”.
As to `CC(=O)SCC/C=C/[C@@H]1CC(=O)NCc2ccc(F)c(n2)C(=O)NC(=C(C)C)C(=O)N[C@@H](C(C)C)C(=O)O1` [Compound 87], the GI50 in assay [1] came to 20 nM; in assay [2], 57 nM; in assay [3], 82 nM; in assay [4], 40 nM; in [5], 19 nM; in assay [6], 20 nM. Also, the GI50 in assay [7] was found to be 30 nM; in assay [8], 42 nM; in assay [9] it was 57 nM; in [10], 37 nM; in assay [11], 37 nM; in assay [12] it was 50 nM. Further, the GI50 in assay [13] was found to be 27 nM; in [14], 30 nM; in [15], 19 nM; in assay [16], 50 nM; in assay [17], 80 nM; in [18] it was 10 nM. Further, the GI50 in assay [19] was found to be 21 nM; in assay [20], 10 nM. For the same compound, on HDAC7, the “IC50 HDAC7” value was “no activity”.
